Reference: ChEMBL document CHEMBL1147514 (Bioorg Med Chem Lett, 2004)
“And” between values parts separate entries of the source, which are not always exact repeats. Identical values can stand only once.

Assays:
[1] = biological target: T1, Neuronal acetylcholine receptor; alpha4/beta2 (Rattus norvegicus, UniProt P09483+P12390); experiment: Binding affinity towards rat Nicotinic acetylcholine receptor alpha4-beta2 expressed in Xenopus oocytes using [3H]epibatidine as radioligand; assay type: cell-based, Oocyte
T1 sequence (P09483 whole entry): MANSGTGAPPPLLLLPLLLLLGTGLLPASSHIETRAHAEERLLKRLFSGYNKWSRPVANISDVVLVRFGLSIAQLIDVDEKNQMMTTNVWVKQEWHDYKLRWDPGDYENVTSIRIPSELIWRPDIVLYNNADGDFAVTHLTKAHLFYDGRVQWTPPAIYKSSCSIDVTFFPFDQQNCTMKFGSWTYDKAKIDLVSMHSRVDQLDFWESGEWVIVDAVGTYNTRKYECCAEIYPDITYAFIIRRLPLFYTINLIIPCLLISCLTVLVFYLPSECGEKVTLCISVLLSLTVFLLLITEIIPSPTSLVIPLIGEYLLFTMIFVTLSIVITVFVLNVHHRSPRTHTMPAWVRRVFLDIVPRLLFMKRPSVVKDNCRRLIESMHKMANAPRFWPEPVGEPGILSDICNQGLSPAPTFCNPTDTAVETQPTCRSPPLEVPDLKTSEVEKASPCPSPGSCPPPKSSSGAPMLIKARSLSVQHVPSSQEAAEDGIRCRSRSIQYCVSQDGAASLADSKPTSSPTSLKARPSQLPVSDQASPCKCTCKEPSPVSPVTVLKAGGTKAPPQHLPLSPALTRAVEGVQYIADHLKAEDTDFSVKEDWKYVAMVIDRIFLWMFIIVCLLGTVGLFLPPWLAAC
T1 sequence (P12390 whole entry): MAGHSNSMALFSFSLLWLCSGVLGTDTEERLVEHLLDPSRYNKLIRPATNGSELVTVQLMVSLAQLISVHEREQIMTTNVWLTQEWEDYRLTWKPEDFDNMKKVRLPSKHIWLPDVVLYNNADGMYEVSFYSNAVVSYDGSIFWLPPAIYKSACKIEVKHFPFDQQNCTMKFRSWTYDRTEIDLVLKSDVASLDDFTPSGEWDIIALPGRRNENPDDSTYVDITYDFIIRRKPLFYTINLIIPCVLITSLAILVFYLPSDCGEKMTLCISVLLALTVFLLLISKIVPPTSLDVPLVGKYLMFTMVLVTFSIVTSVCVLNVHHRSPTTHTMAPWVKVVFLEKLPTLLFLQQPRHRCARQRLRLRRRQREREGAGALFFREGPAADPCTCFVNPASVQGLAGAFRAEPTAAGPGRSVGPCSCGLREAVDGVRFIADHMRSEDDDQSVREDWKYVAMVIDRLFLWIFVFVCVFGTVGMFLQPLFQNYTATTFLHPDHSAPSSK

[2] = biological target: Neuronal acetylcholine receptor; alpha2/beta2 (Rattus norvegicus, UniProt P12389+P12390); experiment: Binding affinity towards rat alpha2-beta2 neuronal nAChR expressed in Xenopus oocytes using [3H]epibatidine as radioligand; assay type: cell-based, Oocyte
Chain of Neuronal acetylcholine receptor; alpha2/beta2 (P12389 whole entry): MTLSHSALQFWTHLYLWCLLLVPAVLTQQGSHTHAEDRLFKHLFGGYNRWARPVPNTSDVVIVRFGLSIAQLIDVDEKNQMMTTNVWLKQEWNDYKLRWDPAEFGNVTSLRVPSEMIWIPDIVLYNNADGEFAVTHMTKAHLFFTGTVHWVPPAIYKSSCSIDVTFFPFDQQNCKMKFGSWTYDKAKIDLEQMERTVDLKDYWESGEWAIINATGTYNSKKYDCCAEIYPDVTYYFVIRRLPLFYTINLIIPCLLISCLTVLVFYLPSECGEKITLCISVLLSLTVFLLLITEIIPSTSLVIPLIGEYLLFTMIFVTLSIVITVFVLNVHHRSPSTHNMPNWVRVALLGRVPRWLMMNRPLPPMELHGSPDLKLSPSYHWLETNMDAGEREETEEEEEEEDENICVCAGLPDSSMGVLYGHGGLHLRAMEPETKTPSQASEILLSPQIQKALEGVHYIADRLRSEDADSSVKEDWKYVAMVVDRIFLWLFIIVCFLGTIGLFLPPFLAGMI
Chain of Neuronal acetylcholine receptor; alpha2/beta2 (P12390 whole entry): as the sequence (P12390 whole entry) above

[3] = biological target: Neuronal acetylcholine receptor; alpha2/beta4 (Rattus norvegicus, UniProt P12389+P12392); experiment: Binding affinity towards rat Nicotinic acetylcholine receptor alpha2-beta4 expressed in Xenopus oocytes using [3H]epibatidine as radioligand; assay type: cell-based, Oocyte
Chain of Neuronal acetylcholine receptor; alpha2/beta4 (P12389 whole entry): as the sequence (P12389 whole entry) above
Chain of Neuronal acetylcholine receptor; alpha2/beta4 (P12392 whole entry): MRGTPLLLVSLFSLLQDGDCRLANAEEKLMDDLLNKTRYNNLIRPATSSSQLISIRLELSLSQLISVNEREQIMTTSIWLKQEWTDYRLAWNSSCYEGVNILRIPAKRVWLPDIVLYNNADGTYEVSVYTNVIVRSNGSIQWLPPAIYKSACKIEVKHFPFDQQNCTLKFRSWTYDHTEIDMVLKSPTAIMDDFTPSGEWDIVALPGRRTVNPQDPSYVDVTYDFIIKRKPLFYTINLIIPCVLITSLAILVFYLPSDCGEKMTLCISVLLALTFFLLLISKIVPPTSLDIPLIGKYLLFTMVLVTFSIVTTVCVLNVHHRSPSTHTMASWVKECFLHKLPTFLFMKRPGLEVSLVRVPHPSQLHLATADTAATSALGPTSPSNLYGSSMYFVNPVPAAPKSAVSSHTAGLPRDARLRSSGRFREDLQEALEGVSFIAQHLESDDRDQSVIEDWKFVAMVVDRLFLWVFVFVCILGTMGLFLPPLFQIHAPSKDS

[4] = biological target: T2, Neuronal acetylcholine receptor; alpha4/beta4 (Rattus norvegicus, UniProt P09483+P12392); experiment: Functional potency measured as stimulation at rat Nicotinic acetylcholine receptor alpha4-beta4 expressed in Xenopus oocytes; assay type: cell-based, Oocyte
T2 sequence (P09483 whole entry): as the sequence (P09483 whole entry) above
T2 sequence (P12392 whole entry): as the sequence (P12392 whole entry) above

[5] = biological target: T2, Neuronal acetylcholine receptor; alpha4/beta4; experiment: Binding affinity towards rat Nicotinic acetylcholine receptor alpha4-beta4 expressed in Xenopus oocytes using [3H]epibatidine as radioligand; assay type: cell-based, Oocyte
[6] = biological target: Neuronal acetylcholine receptor; alpha4/beta4 (Rattus norvegicus) (UniProt P09483+P12392); experiment: Functional potency measured as maximum stimulation at rat Nicotinic acetylcholine receptor alpha4-beta4 expressed in Xenopus oocytes; assay type: cell-based; settings: Oocyte
[7] = biological target: Neuronal acetylcholine receptor; alpha4/beta2 (Rattus norvegicus) (UniProt P09483+P12390); experiment: Functional potency measured as maximum stimulation at rat Nicotinic acetylcholine receptor alpha4-beta2 expressed in Xenopus oocytes; assay type: cell-based; settings: Oocyte
[8] = biological target: Neuronal acetylcholine receptor; alpha3/beta2 (Rattus norvegicus, UniProt P04757+P12390); experiment: Binding affinity towards rat Nicotinic acetylcholine receptor alpha3-beta2 expressed in Xenopus oocytes using [3H]epibatidine as radioligand; assay type: cell-based, Oocyte
Chain of Neuronal acetylcholine receptor; alpha3/beta2 (P04757 whole entry): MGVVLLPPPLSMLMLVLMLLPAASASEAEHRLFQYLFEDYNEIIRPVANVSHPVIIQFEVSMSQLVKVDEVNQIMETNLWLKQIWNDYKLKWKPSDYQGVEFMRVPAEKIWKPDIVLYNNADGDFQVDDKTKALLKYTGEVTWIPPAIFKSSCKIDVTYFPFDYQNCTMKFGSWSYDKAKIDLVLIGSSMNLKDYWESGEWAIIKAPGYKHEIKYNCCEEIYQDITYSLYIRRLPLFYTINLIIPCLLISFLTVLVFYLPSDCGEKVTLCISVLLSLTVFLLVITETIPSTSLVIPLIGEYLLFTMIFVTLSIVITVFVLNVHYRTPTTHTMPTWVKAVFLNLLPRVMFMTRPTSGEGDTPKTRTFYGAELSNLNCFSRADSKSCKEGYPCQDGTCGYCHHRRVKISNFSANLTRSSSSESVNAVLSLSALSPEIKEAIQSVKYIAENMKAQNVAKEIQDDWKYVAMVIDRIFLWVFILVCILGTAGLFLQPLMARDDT
Chain of Neuronal acetylcholine receptor; alpha3/beta2 (P12390 whole entry): as the sequence (P12390 whole entry) above

[9] = biological target: T3, Neuronal acetylcholine receptor; alpha3/beta4 (Rattus norvegicus, UniProt P04757+P12392); experiment: Functional potency measured as stimulation at rat Nicotinic acetylcholine receptor alpha3-beta4 expressed in Xenopus oocytes; assay type: cell-based, Oocyte
T3 sequence (P04757 whole entry): as the sequence (P04757 whole entry) above
T3 sequence (P12392 whole entry): as the sequence (P12392 whole entry) above

[10] = biological target: T3, Neuronal acetylcholine receptor; alpha3/beta4; experiment: Binding affinity towards rat Nicotinic acetylcholine receptor alpha3-beta4 expressed in Xenopus oocytes using [3H]epibatidine as radioligand; assay type: cell-based, Oocyte
[11] = biological target: Neuronal acetylcholine receptor; alpha3/beta4 (Rattus norvegicus) (UniProt P04757+P12392); experiment: Functional potency measured as maximum stimulation at rat Nicotinic acetylcholine receptor alpha3-beta4 expressed in Xenopus oocytes; assay type: cell-based; settings: Oocyte
[12] = biological target: T1, Neuronal acetylcholine receptor; alpha4/beta2; experiment: Functional potency measured as stimulation at rat Nicotinic acetylcholine receptor alpha4-beta2 expressed in Xenopus oocytes; assay type: cell-based, Oocyte
[13] = species on record: Mus musculus; experiment: Antinociceptive activity was tested in the mouse hot plate test; assay type: functional
[14] = species on record: Mus musculus; experiment: Antinociceptive activity was tested in the mouse tail-flick test; assay type: functional
[15] = biological target: T1, Neuronal acetylcholine receptor; alpha4/beta2; experiment: Inhibition of [3H]epibatidine binding to Nicotinic acetylcholine receptor alpha4-beta2 from rat membranes
[16] = biological target: Neuronal acetylcholine receptor subunit alpha-7 (Rattus norvegicus, UniProt Q05941); experiment: Inhibition of [125I]-iodo-MLA binding to Nicotinic acetylcholine receptor alpha-7 from rat brain membranes; assay type: cell membranes, Membrane
Chain of Neuronal acetylcholine receptor subunit alpha-7 (Q05941 whole entry): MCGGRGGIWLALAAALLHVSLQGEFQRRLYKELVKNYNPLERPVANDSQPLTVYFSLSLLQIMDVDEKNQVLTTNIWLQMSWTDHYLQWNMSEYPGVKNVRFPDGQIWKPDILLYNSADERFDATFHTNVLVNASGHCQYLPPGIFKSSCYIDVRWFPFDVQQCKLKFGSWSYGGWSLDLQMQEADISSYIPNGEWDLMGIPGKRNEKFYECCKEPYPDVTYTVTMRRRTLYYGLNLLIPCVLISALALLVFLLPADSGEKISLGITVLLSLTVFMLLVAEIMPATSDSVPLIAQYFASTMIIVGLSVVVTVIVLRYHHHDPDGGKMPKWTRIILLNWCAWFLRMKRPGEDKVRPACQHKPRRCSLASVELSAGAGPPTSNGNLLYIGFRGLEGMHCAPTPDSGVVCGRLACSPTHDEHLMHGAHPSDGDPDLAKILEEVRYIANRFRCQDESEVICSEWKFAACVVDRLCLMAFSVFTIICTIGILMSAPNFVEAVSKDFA

[17] = biological target: T1, Neuronal acetylcholine receptor; alpha4/beta2; experiment: inhibition of [3H]nicotine binding to alpha4-beta2 nACh receptor from rat membranes from ref 18
[18] = biological target: T1, Neuronal acetylcholine receptor; alpha4/beta2; experiment: Inhibition of [3H]nicotine binding to Nicotinic acetylcholine receptor alpha4-beta2 from rat membranes
[19] = test system: Mus musculus; experiment: Blockage of antinociceptive activity was tested in the mouse tail-flick test at 0.01 mg/kg; assay type: functional
[20] = test system: Mus musculus; experiment: Blockage of antinociceptive activity was tested in the mouse hot plate test at 0.01 mg/kg; assay type: functional
[21] = species on record: Mus musculus; experiment: animal or person
Description: Antinociceptive activity was tested in the mouse hot plate test at 15 mg/kg

[22] = species on record: Mus musculus; experiment: animal or person; settings: Tail
Description: Antinociceptive activity was tested in the mouse tail-flick test at 15 mg/kg

[23] = species on record: Mus musculus; experiment: Blockage of antinociceptive activity of nicotine was tested in the mouse hot plate test; assay type: functional
[24] = species on record: Mus musculus; experiment: Antinociceptive activity was tested in the mouse tail-flick test at 32.5 nM; assay type: functional

For `c1cncc(C2CC3CCC2N3)c1` (centres undefined) [DESCHLOROEPIBATIDINE], the Ki [1] was 0.0085 nM, the Ki [2] was 0.028 nM and the Ki [3] was 3.3 nM. For the same compound, the EC50 [4] was 982 nM, the Ki [5] was 3.2 nM and the Max [6] was 147%. For the same compound, the Max [7] was 112%, the Ki [8] was 0.0031 nM and the EC50 [9] was 702 nM. It also gave a Ki [10] of 11 nM, a Max [11] of 61% and an EC50 [12] of 3630 nM.
For `Clc1cc(C2CC3CCC2N3)cnc1Cl` (centres undefined), the ED50 [13] was 30 µg/kg, the ED50 [14] was 50 µg/kg and the Ki [15] was 0.014 nM. For the same compound, the Ki [16] was 1.12 nM.
`[N-]=[N+]=Nc1cc(C2CC3CCC2N3)cnc1Cl` (centres undefined) [AZIDOEPIBATIDINE] was tested, and the Ki [15] was 0.027 nM and the Ki [16] was 9.7 nM.
Work on `Fc1ccc(C2CC3CCC2N3)cn1` (centres undefined) yielded a Ki [1] of 0.0092 nM, a Ki [2] of 0.0024 nM and a Ki [3] of 1.2 nM. The EC50 [4] was 239 nM, the Ki [5] was 0.48 nM and the Max [6] was 131%. It also gave a Max [7] of 41%, a Ki [8] of 0.0038 nM and an EC50 [9] of 319 nM. The Ki [10] was 2.1 nM, the Max [11] was 40% and the EC50 [12] was 254 nM. It also gave a Ki [17] of 0.037 nM.
`CN1[C@@H]2CC[C@H]1[C@H](c1ccc(Cl)nc1)C2` gave a Ki [18] of 0.26 nM.
`Brc1ccc(C2CC3CCC2N3)cn1` (centres undefined) gave a Ki [1] of 0.01 nM, a Ki [2] of 0.013 nM and a Ki [3] of 0.055 nM. It also gave an EC50 [4] of 20 nM, a Ki [5] of 0.044 nM and a Max [6] of 102%. The Max [7] was 65%, the Ki [8] was 0.004 nM and the EC50 [9] was 189 nM. It also gave a Ki [10] of 0.22 nM, a Max [11] of 82% and an EC50 [12] of 94 nM.
Work on `Clc1ncc(C2CC3CCC2N3)cc1I` (centres undefined) yielded an Activity [19] of 4%, an ED50 [13] of 140 µg/kg and an ED50 [14] of 240 µg/kg. It also gave a Ki [15] of 0.008 nM and an Activity [20] of 0%.
In the case of `Clc1ccc(C2CC3CCC2N3)cn1` (centres undefined) [EPIBATIDINE], the ED50 [14] is reported as greater than 1000 µg/kg, the Max [6] is reported as 71% and the Max [7] is reported as 58%. It also gave a Max [11] of 39%, an ED50 [21] of 4 µg/kg and an ED50 [22] of 6 µg/kg.
For `CC(=O)OCC[N+](C)(C)C`, the Max [6] was 98%, the Max [7] was 95% and the Max [11] was 100%.
Compound `CC(=O)N1C2CCC1C(c1ccc(Cl)nc1)C2` (centres undefined) has an ED50 [14] greater than 1000 µg/kg.
In the case of `Fc1cc(C2CC3CCC2N3)cnc1Cl` (centres undefined), the ED50 [13] is reported as 9 µg/kg, the ED50 [14] is reported as 8 µg/kg and the Ki [15] is reported as 0.025 nM.
With `O=S(=O)(OC(F)(F)F)c1ccc(C2CC3CCC2N3)cn1` (centres undefined) the Ki [1] was roughly 100 nM, the Ki [2] was greater than 10 nM and the Ki [8] was roughly 100 nM.
With `Nc1cc(C2CC3CCC2N3)cnc1Cl` (centres undefined) the AD50 [23] was 0.03 µg/kg and 0.06 µg/kg, the ED50 [13] was 20 µg/kg and the ED50 [14] was 20 µg/kg. For the same compound, the Ki [15] was 0.01 nM and the Ki [16] was 13.9 nM.
`CN(C)c1ccc(C2CC3CCC2N3)cn1` (centres undefined) showed an Activity [24] of 10%, a Ki [1] greater than 100 nM and a Ki [2] greater than 100 nM. For the same compound, the Ki [8] was greater than 100 nM.
